Patent US20060286608A1, “Method for screening transglutaminase 2 inhibitor or activator” (priority 2005, published 2006)

What was measured:
TGase 2 [1] = assay: TGase activity assay in LPS-activated BV-2 microglia; format: cell-based, murine; details: BV-2 microglia, after 24 hours of LPS treatment (100 μg/ml)
Method: (§1) The BV-2 cells were grown and maintained in DMEM (Dulvecco's modified Eagle's medium) (Invitrogen) supplemented with 10% FCS (fetal calf serum) and penicillin/streptomycin at 37° C. in a humidified incubator under 5% CO2. To activate BV-2, the cells were treated with LPS (100 μg/ml; Sigma) for 24 hours. After LPS treatment for 24 hours with or without inducible nitric-oxide synthase(iNOS) inhibitor, 0, 50, and 100 μM N^G-monomethyl-L-arginine(L-NMMA) (Sigma), proteins were extracted with radioimmunoprecipitation assay buffer (1× phosphate-buffered saline (PBS), 1% Nonidet P-40, 0.5% sodium deoxycholate and 0.1% SDS) containing protease inhibitors from BV-2 harvest, followed by analysis for TGase 2 activity.
Enzymatic activity was determined using a modified TGase assay method for measuring the incorporation of [1,4-^14C] putrescine into succinylated casein.

iNOS = assay: Semi-quantitative RT-PCR of mouse iNOS in BV-2 cells; format: cell-based; details: BV-2 cells treated with LPS
Method: (§2) Semi-quantitative RT-PCR was performed using competitive mimic templates as internal controls. To prepare total RNA for RT-PCR, the cells were lysed with a TRIzol reagent. Samples of the total RNA were reverse-transcribed at 42° C. using the first strand synthesis kit (Promega) with avian myeloblastosis virus reverse transcriptase, and PCR was performed for the transcripts of iNOS and TGase 2 using corresponding specific primer sets. For each PCR, 1.5 mM MgCl2, 200 μM dNTP, 0.2 μM of each primer, 0.5 unit Taq polymerase, and a predetermined amount of a template were contained in a volume of 20 μl. The mimic templates of TGase 2 and iNOS were constructed by PCR. The mimics of mouse TGase 2 and mouse iNOS were prepared from 2014-2338 bp and 1451-2043 bp, respectively. RT-PCR products thus obtained were 526 bp for target TGase 2, 345 bp for mimic TGase 2, 593 bp for target iNOS, and 345 bp for mimic iNOS. For the RT-PCR, a primer set of SEQ. ID. NOS. 1 and 2, and a primer set of SEQ. ID. NOS.

TGase 2 [2] = details: microglia after 24 hours of exposure to LPS; previous study (Park et al. 2004); cited from earlier work
TGase 2 [3] = assay: Semi-quantitative RT-PCR of mouse TGase 2 in BV-2 cells; format: cell-based; details: BV-2 cells treated with LPS
Method: as §2

BV-2 microglia = assay: Nitric oxide measurement (Griess reaction) in LPS-activated BV-2 microglia; format: cell-based, murine; details: BV-2 microglia, after 24 hours of LPS treatment (100 μg/ml)
Method: as §1
Accumulated nitric oxide was measured in the cell supernatant after LPS treatment for 24 hours by Griess reaction. A 200 μl aliquot of the cell supernatant in each well of a 96-well microtiter plate was mixed with 100 μl of the Griess reagent [1% sulfanilamide (Fluka), 0.1% naphthylethylenediamine dihydrochloride (Fluka), 2.5% H3PO4], and the absorbance was read at 540 nm using a plate reader.

TGase 2 [4] = assay: Immunohistochemical staining of TGase 2 in rat brain after LPS injection; format: in vivo; details: rats killed 1 hour after peritoneal injection of 2.5 mg/kg LPS, compared with saline alone
Method: Male Sprague-Dawley rats (Samtako, Osan, Korea) weighing 190-220 g were used as experimental models for intraperitoneal LPS injection as described previously. All experimental procedures were approved by the Seoul National University Care of Experimental Animals Committee. A solution of LPS (2.5 mg/kg) in 0.9% saline or 0.9% sterile saline was intraperitoneally injected into rats. To determine the effect of TGase inhibitors, rats were intraperitoneally injected with an R2 peptide (25 μM), an E2 peptide (25 μM, and dexamethasome (1 mg/kg) at 30 min before and at the time of LPS injection. Dexamethasome injection was used as a positive control.
After 1 hour of intraperitoneal injection with LPS or saline, rats were anesthetized with 1% ketamine (30 mg/kg) and xylazine hydrochloride (4 mg/kg). Brains were perfused through the heart with saline containing 0.5% sodium nitrite and 10 units/ml heparin, followed by perfusion with 4% paraformaldehyde in PBS (0.1 M, pH 7.2). Brains were removed, rinsed with PBS, and cryoprotected in sucrose. Sections were prepared on a sliding microtome (40 μm) at the level of the subfornical organ. A monoclonal antibody (TG-100; NeoMarkers) to TGase 2 was used to subject TGase 2 to immunohistochemical staining. Brain sections were blocked with 1% BSA in PBS and incubated overnight with a primary antibody solution (1:200 dilution). […]

## lipopolysaccharide [LPS]
TGase 2 [1]
  TGase 2 activity, increase: 5 fold
iNOS
  iNOS by RT-PCR, increase: 10 fold
TGase 2 [2]
  TGase activity, increase: about 5 fold
TGase 2 [3]
  TGase 2 by RT-PCR, increase: 3 fold
BV-2 microglia
  release of NO, increase: 10 fold
TGase 2 [4]
  TGase 2 expression in brains: increased
